Results: patent US20260274814A1, “THIENYL COMPOUNDS FOR THE TREATMENT OF A CENTRAL NERVOUS SYSTEM DISEASE OR DISORDER” (Coreterra Therapeutics, Inc., priority 2023, published 2026)
Counter-ions that a name gives are not always drawn. Like-named read-outs stand apart in the source and are kept apart here.

System: mice
Assay: Neuropharmacological Assay (SmartCube): automated behavioral signature of compound-treated mice compared with a database of reference drug classes
Format: in vivo
Conditions: for minimal effective dose: Mus musculus, ip; for minimal effective dose / MED / MED (minimal effective dose): i.p., that dose is shown
Outline: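 Mice dosed i.p. 15 min before SmartCube testing, with compound in N-methyl-2-pyrrolidone/polyethylene glycol/propylene glycol. Video-captured behaviour is compared with a reference-drug signature database to give per-class probabilities, reported at 3.0 mg/kg. MED, from doses usually 0.3–10 mg/kg, is the lowest dose giving ≥45% total activity.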

[1] = minimal effective dose: dose having 45% or more total activity in SmartCube, if only one dose tested, read-out: MED
[2] = SmartCube class probability, 3.0 mg/kg i.p., 15 min before test
[3] = SmartCube class probability, 3.0 mg/kg i.p., 15 min before test, hydrochloride, 3 mg/kg
[4] = minimal effective dose: dose having 45% or more total activity in SmartCube, if only one dose tested
[5] = dose having 45% or more total activity in SmartCube, if only one dose was tested
[6] = probability that activity matches this class of agents, 3.0 mg/kg i.p., 15 min before test
[7] = probability that activity matches this class of agents, 3.0 mg/kg i.p., 15 min before test, 3 mg/kg
[8] = probability that activity matches this class of agents, 3.0 mg/kg i.p., 15 min before test, hydrochloride, 3 mg/kg
[9] = minimal effective dose: dose having 45% or more total activity in SmartCube, if only one dose was tested, read-out: MED
[10] = SmartCube probability class, 3.0 mg/kg dose, i.p. 15 min before the behavioral test
[11] = SmartCube probability class, 3.0 mg/kg dose, i.p. 15 min before the behavioral test, hydrochloride, 3 mg/kg
[12] = SmartCube probability class, 3.0 mg/kg dose, i.p. 15 min before the behavioral test, formate salt, 3 mg/kg

Compound | minimal effective dose [1] [mg/kg] | AD [2] | AG [2] | AN [2] | AP [2] | AX [2] | CE [2] | HL [2] | MS [2] | PS [2] | SH [2] | UK [2] | also measured
Cc1csc2c1OCC(N)C2 (centres unmarked) [Compound 228, 3-methyl-6,7-dihydro-5H-thieno[3,2-b]pyran-6-amine hydrochloride] | 1 | ND (^ <4%) | ND (^ <4%) | ND (^ <4%) | ND (^ <4%) | ND (^ <4%) | ND (^ <4%) | ND (^ <4%) | ND (^ <4%) | ND (^ <4%) | ND (^ <4%) | ND (^ <4%) | 
c1scc2c1CCC(NC1CCC1)C2 (single isomer, unassigned) [Compound 161, N-cyclobutyl-4,5,6,7-tetrahydro-2-benzothiophen-5-amine hydrochloride] |  | ND (^ <4%) | ND (^ <4%) | ND (^ <4%) | ND (^ <4%) | ND (^ <4%) | ND (^ <4%) | ND (^ <4%) | ND (^ <4%) | ND (^ <4%) | ND (^ <4%) |  | UK [3]: ND (^ <4%); MED [4]: >3 mpk
CNC1CCc2cc(Cl)sc2C1 (single isomer, unassigned) [Compound 146, 2-chloro-N-methyl-4,5,6,7-tetrahydrobenzothiophen-6-amine hydrochloride] |  |  | ND (^ <4%) | ND (^ <4%) | ND (^ <4%) | ND (^ <4%) | ND (^ <4%) | ND (^ <4%) | ND (^ <4%) | ND (^ <4%) | ND (^ <4%) |  | AD [3]: ND (^ <4%); UK [3]: +++ (≥49%); MED [4]: 3 mpk
CNC1CCc2cc(C(F)(F)F)sc2C1 (single isomer, unassigned) [Compound 39, N-methyl-2-(trifluoromethyl)-4,5,6,7-tetrahydrobenzothiophen-6-amine] |  |  |  |  |  |  |  |  |  |  |  |  | MED (minimal effective dose) [5]: 3.0 mpk; AG [6]: ND (^ <4%); AN [6]: ND (^ <4%); AX [6]: ND (^ <4%); CE [6]: ND (^ <4%); HL [6]: ND (^ <4%); MS [6]: ND (^ <4%); PS [6]: ND (^ <4%); SH [6]: ND (^ <4%); AD [7]: +++ (≥49%); AP [7]: ++ (≥24%); UK [7]: ND (^ <4%)
N#Cc1scc2c1CC(N)CC2 (centres unmarked) [Compound 204, 6-amino-4,5,6,7-tetrahydro-2-benzothiophene-1-carbonitrile hydrochloride] | 3 | ND (^ <4%) | ND (^ <4%) | ND (^ <4%) | ++++ (≥74%) | ND (^ <4%) | ND (^ <4%) | ND (^ <4%) | ND (^ <4%) | ND (^ <4%) | ND (^ <4%) | ND (^ <4%) | 
CCNC1CCc2cscc2C1 (single isomer, unassigned) [Compound 172, N-ethyl-4,5,6,7-tetrahydro-2-benzothiophen-5-amine hydrochloride] |  | ND (^ <4%) | ND (^ <4%) | ND (^ <4%) |  |  | ND (^ <4%) | ND (^ <4%) | ND (^ <4%) | ND (^ <4%) | ND (^ <4%) | ND (^ <4%) | AP [3]: ND (^ <4%); AX [3]: ++++ (≥74%); MED (minimal effective dose: dose having 45% or more total activity in SmartCube, if only one dose tested, hydrochloride): 1 mpk
CNC1CCc2sc(Cl)cc2C1 (single isomer, unassigned) [Compound 151, 2-chloro-N-methyl-4,5,6,7-tetrahydrobenzothiophen-5-amine hydrochloride] | 3 | ND (^ <4%) | ND (^ <4%) | ND (^ <4%) | ND (^ <4%) | ND (^ <4%) | ND (^ <4%) | ND (^ <4%) | ND (^ <4%) | ND (^ <4%) | ND (^ <4%) |  | UK [3]: +++ (≥49%)
CNC1CCc2c(F)sc(F)c2C1 (single isomer, unassigned) [Compound 77, 1,3-difluoro-N-methyl-4,5,6,7-tetrahydro-2-benzothiophen-5-amine hydrochloride] |  |  |  |  |  |  |  |  |  |  |  |  | MED (minimal effective dose) (dose having 45% or more total activity in SmartCube, if only one dose was tested, hydrochloride): 0.3 mpk; AG [6]: ND (^ <4%); AN [6]: ND (^ <4%); AP [6]: ++ (≥24%); CE [6]: ND (^ <4%); HL [6]: ND (^ <4%); MS [6]: ND (^ <4%); PS [6]: ND (^ <4%); SH [6]: ND (^ <4%); AD [8]: ++ (≥24%); AX [8]: + (≥4%); UK [8]: ND (^ <4%)
CNC1CCc2scc(C3CCC3)c2C1 (centres unmarked) [Compound 206, 3-cyclobutyl-N-methyl-4,5,6,7-tetrahydrobenzothiophen-5-amine hydrochloride] | 3 | ND (^ <4%) | ND (^ <4%) | ND (^ <4%) | ND (^ <4%) | ND (^ <4%) | ND (^ <4%) | ND (^ <4%) | ND (^ <4%) | ND (^ <4%) | ND (^ <4%) | ++ (≥24%) | 
CNC1CCc2c(C)sc(C(F)(F)F)c2C1 (single isomer, unassigned; enantiomer 1) [Compound 104, N, 1-dimethyl-3-(trifluoromethyl)-4,5,6,7-tetrahydro-2-benzothiophen-5-amine hydrochloride enantiomer 1] |  |  |  |  |  |  |  |  |  |  |  |  | minimal effective dose (dose having 45% or more total activity in SmartCube, if only one dose was tested, read-out: MED (minimal effective dose)): 3 mg/kg; AD [6]: ND (^ <4%); AG [6]: ND (^ <4%); AN [6]: ND (^ <4%); AX [6]: ND (^ <4%); CE [6]: ND (^ <4%); HL [6]: ND (^ <4%); MS [6]: ND (^ <4%); PS [6]: ND (^ <4%); SH [6]: ND (^ <4%); AP [7]: ++ (≥24%); UK [7]: ++ (≥24%)
CNC1Cc2scc(C(F)(F)F)c2C1 (single isomer, unassigned) [Compound 314, N-methyl-3-(trifluoromethyl)-5,6-dihydro-4H-cyclopenta[b]thiophen-5-amine hydrochloride] |  |  |  |  |  |  |  |  |  |  |  |  | minimal effective dose [9]: > 3 mg/kg; AD [10]: ND (^ <4%); AG [10]: ND (^ <4%); AN [10]: ND (^ <4%); CE [10]: ND (^ <4%); HL [10]: ND (^ <4%); MS [10]: ND (^ <4%); PS [10]: ND (^ <4%); SH [10]: ND (^ <4%); AP [11]: ND (^ <4%); AX [11]: ND (^ <4%); UK [11]: + (≥4%)
Cc1scc2c1CCC(N)C2 (single isomer, unassigned) [Compound 165, 1-methyl-4,5,6,7-tetrahydro-2-benzothiophen-5-amine hydrochloride] |  |  | ND (^ <4%) | ND (^ <4%) | ND (^ <4%) | ND (^ <4%) | ND (^ <4%) |  | ND (^ <4%) | ND (^ <4%) | ND (^ <4%) | ND (^ <4%) | AD [3]: ND (^ <4%); HL [3]: ++++ (≥74%); MED [4]: 3 mpk
CNC1CCc2c(sc(C)c2C)C1 (single isomer, unassigned) [Compound 43, N, 2,3-trimethyl-4,5,6,7-tetrahydrobenzothiophen-6-amine hydrochloride] |  |  |  |  |  |  |  |  |  |  |  |  | MED (minimal effective dose) [5]: 3.0 mpk; AD [6]: ++++ (≥74%); AG [6]: ND (^ <4%); AN [6]: ND (^ <4%); AP [6]: ND (^ <4%); AX [6]: ND (^ <4%); CE [6]: ND (^ <4%); MS [6]: ND (^ <4%); PS [6]: ND (^ <4%); SH [6]: ND (^ <4%); UK [6]: ND (^ <4%); HL [8]: + (≥4%)
CNC1COc2sccc2C1 (single isomer, unassigned) [Compound 293, N-methyl-3,4-dihydro-2H-thieno[2,3-b]pyran-3-amine formate salt] |  |  |  |  |  |  |  |  |  |  |  |  | minimal effective dose [9]: < 3 mg/kg; AD [10]: ND (^ <4%); AG [10]: ND (^ <4%); AN [10]: ND (^ <4%); AX [10]: ND (^ <4%); CE [10]: ND (^ <4%); HL [10]: ND (^ <4%); MS [10]: ND (^ <4%); PS [10]: ND (^ <4%); SH [10]: ND (^ <4%); AP [12]: ++++ (≥74%); UK [12]: ND (^ <4%)
NC1COc2c(C3CC3)csc2C1 (centres unmarked) [Compound 229, 3-cyclopropyl-6,7-dihydro-5H-thieno[3,2-b]pyran-6-amine hydrochloride] | 3 |  | ND (^ <4%) | ND (^ <4%) | ND (^ <4%) | ++++ (≥74%) | ND (^ <4%) | + (≥4%) | ND (^ <4%) | ND (^ <4%) | ND (^ <4%) | ND (^ <4%) | 
